Experimental data from ChEMBL document CHEMBL4665836, “Overcoming β-Lactam resistance in Pseudomonas aeruginosa using non-canonical tobramycin-based antibiotic adjuvants” (2020).

Experiments:
Format in all cases: functional
[1] = test system: Pseudomonas aeruginosa; assay: Potentiation of ceftazidime-induced antibacterial activity against carbapenem and colistin-resistant Pseudomonas aeruginosa 101243 clinical isolate assessed as ceftazidime MIC at 8 uM by checkerboard assay (reference value: 64 ug/ml)
[2] = test system: Pseudomonas aeruginosa; assay: Potentiation of ceftazidime-induced antibacterial activity against carbapenem-resistant Pseudomonas aeruginosa 260-97103 clinical isolate assessed as ceftazidime MIC at 8 uM by checkerboard assay (reference value: 32 ug/ml)
[3] = test system: Pseudomonas aeruginosa; assay: Potentiation of aztreonam-induced antibacterial activity against carbapenem-resistant Pseudomonas aeruginosa 260-97103 clinical isolate assessed as aztreonam MIC at 8 uM by checkerboard assay (reference value: 64 ug/ml)
[4] = test system: Pseudomonas aeruginosa; assay: Potentiation of imipenem-induced antibacterial activity against wild type Pseudomonas aeruginosa PAO1 assessed as fold reduction in imipenem MIC at 8 uM
[5] = test system: Pseudomonas aeruginosa; assay: Potentiation of imipenem-induced antibacterial activity against carbapenem and colistin-resistant Pseudomonas aeruginosa 114228 clinical isolate assessed as imipenem MIC at 8 uM by checkerboard assay (reference value: 8 ug/ml)
[6] = test system: Pseudomonas aeruginosa; assay: Potentiation of ceftazidime-induced antibacterial activity against carbapenem-resistant Pseudomonas aeruginosa 109084 clinical isolate assessed as ceftazidime MIC at 8 uM by checkerboard assay (reference value: 64 ug/ml)
[7] = test system: Pseudomonas aeruginosa; assay: Potentiation of aztreonam-induced antibacterial activity against carbapenem-resistant Pseudomonas aeruginosa 262-101856 clinical isolate assessed as aztreonam MIC at 8 uM by checkerboard assay (reference value: 32 ug/ml)
[8] = test system: Pseudomonas aeruginosa; assay: Potentiation of imipenem-induced antibacterial activity against carbapenem and colistin-resistant Pseudomonas aeruginosa 101243 clinical isolate assessed as imipenem MIC at 8 uM by checkerboard assay (reference value: 8 ug/ml)
[9] = test system: Pseudomonas aeruginosa; assay: Potentiation of ceftazidime-induced antibacterial activity against carbapenem-resistant Pseudomonas aeruginosa 107092 clinical isolate assessed as fold reduction in ceftazidime MIC at 8 uM in presence of beta-lactamase inhibitor, avi-bactam
[10] = test system: Pseudomonas aeruginosa; assay: Potentiation of aztreonam-induced antibacterial activity against carbapenem-resistant Pseudomonas aeruginosa 88949 clinical isolate assessed as aztreonam MIC at 8.7 uM by checkerboard assay (reference value: 32 ug/ml)
[11] = test system: Pseudomonas aeruginosa; assay: Potentiation of ceftazidime-induced antibacterial activity against carbapenem and colistin-resistant Pseudomonas aeruginosa 114228 clinical isolate assessed as ceftazidime MIC at 8.7 uM by checkerboard assay (reference value: 8 ug/ml)
[12] = test system: Pseudomonas aeruginosa; assay: Potentiation of ceftazidime-induced antibacterial activity against carbapenem-resistant Pseudomonas aeruginosa 86052 clinical isolate assessed as ceftazidime MIC at 8.7 uM by checkerboard assay (reference value: 64 ug/ml)
[13] = test system: Pseudomonas aeruginosa; assay: Potentiation of aztreonam-induced antibacterial activity against carbapenem-resistant Pseudomonas aeruginosa PAO200 harboring and mexAB-oprM efflux deficient mutant assessed as aztreonam MIC at 8.7 uM by checkerboard assay (reference value: 0.25 ug/ml)
[14] = test system: Pseudomonas aeruginosa; assay: Potentiation of ceftazidime-induced antibacterial activity against carbapenem-resistant Pseudomonas aeruginosa 100036 clinical isolate assessed as ceftazidime MIC at 8.7 uM by checkerboard assay (reference value: 8 ug/ml)
[15] = test system: Pseudomonas aeruginosa; assay: Potentiation of aztreonam-induced antibacterial activity against carbapenem-resistant Pseudomonas aeruginosa 108590 clinical isolate assessed as aztreonam MIC at 8.7 uM by checkerboard assay (reference value: 32 ug/ml)
[16] = test system: Pseudomonas aeruginosa; assay: Potentiation of ceftazidime-induced antibacterial activity against carbapenem-resistant Pseudomonas aeruginosa 264-104354 clinical isolate assessed as ceftazidime MIC at 8.7 uM by checkerboard assay (reference value: 128 ug/ml)
[17] = test system: Pseudomonas aeruginosa; assay: Potentiation of ceftazidime-induced antibacterial activity against carbapenem-resistant Pseudomonas aeruginosa 107092 clinical isolate assessed as ceftazidime MIC at 8.7 uM by checkerboard assay (reference value: 128 ug/ml)
[18] = test system: Pseudomonas aeruginosa; assay: Potentiation of ceftazidime-induced antibacterial activity against carbapenem-resistant Pseudomonas aeruginosa 259-96918 clinical isolate expressing metallo-beta-lactamase assessed as ceftazidime MIC at 8.7 uM by checkerboard assay (reference value: 512 ug/ml)
[19] = test system: Pseudomonas aeruginosa; assay: Potentiation of ceftazidime-induced antibacterial activity against carbapenem-resistant Pseudomonas aeruginosa 101885 clinical isolate assessed as ceftazidime MIC at 8.7 uM by checkerboard assay (reference value: 8 ug/ml)
[20] = test system: Pseudomonas aeruginosa; assay: Potentiation of ceftazidime-induced antibacterial activity against carbapenem-resistant Pseudomonas aeruginosa 262-101856 clinical isolate assessed as ceftazidime MIC at 8.7 uM by checkerboard assay (reference value: 16 ug/ml)
[21] = test system: Pseudomonas aeruginosa; assay: Potentiation of aztreonam-induced antibacterial activity against carbapenem-resistant Pseudomonas aeruginosa 100036 clinical isolate assessed as aztreonam MIC at 8.7 uM by checkerboard assay (reference value: 16 ug/ml)
[22] = test system: Pseudomonas aeruginosa; assay: Potentiation of aztreonam-induced antibacterial activity against carbapenem-resistant Pseudomonas aeruginosa 259-96918 clinical isolate expressing metallo-beta-lactamase assessed as aztreonam MIC at 8.7 uM by checkerboard assay (reference value: 32 ug/ml)
[23] = test system: Pseudomonas aeruginosa; assay: Potentiation of aztreonam-induced antibacterial activity against carbapenem and colistin-resistant Pseudomonas aeruginosa 101243 clinical isolate assessed as aztreonam MIC at 8.7 uM by checkerboard assay (reference value: 32 ug/ml)
[24] = test system: Pseudomonas aeruginosa; assay: Potentiation of aztreonam-induced antibacterial activity against carbapenem-resistant Pseudomonas aeruginosa 260-97103 clinical isolate assessed as aztreonam MIC at 8.7 uM by checkerboard assay (reference value: 64 ug/ml)
[25] = test system: Pseudomonas aeruginosa; assay: Potentiation of aztreonam-induced antibacterial activity against carbapenem-resistant Pseudomonas aeruginosa 264-104354 clinical isolate assessed as aztreonam MIC at 8.7 uM by checkerboard assay (reference value: 32 ug/ml)
[26] = test system: Pseudomonas aeruginosa; assay: Potentiation of ceftazidime-induced antibacterial activity against carbapenem-resistant Pseudomonas aeruginosa 108590 clinical isolate assessed as ceftazidime MIC at 8.7 uM by checkerboard assay (reference value: 32 ug/ml)
[27] = test system: Pseudomonas aeruginosa; assay: Potentiation of aztreonam-induced antibacterial activity against carbapenem-resistant Pseudomonas aeruginosa PAO750 harboring and mexAB-oprM/mexCD-oprJ/mexEF-oprN/mexJK/mexXY/opmH efflux deficient mutant assessed as aztreonam MIC at 8.7 uM by checkerboard assay (reference value: 0.5 ug/ml)
[28] = test system: Pseudomonas aeruginosa; assay: Potentiation of ceftazidime-induced antibacterial activity against carbapenem-resistant Pseudomonas aeruginosa 260-97103 clinical isolate assessed as ceftazidime MIC at 8.7 uM by checkerboard assay (reference value: 32 ug/ml)
[29] = test system: Pseudomonas aeruginosa; assay: Potentiation of ceftazidime-induced antibacterial activity against carbapenem-resistant Pseudomonas aeruginosa 88949 clinical isolate assessed as ceftazidime MIC at 8.7 uM by checkerboard assay (reference value: 64 ug/ml)
[30] = test system: Pseudomonas aeruginosa; assay: Potentiation of ceftazidime-induced antibacterial activity against carbapenem-resistant Pseudomonas aeruginosa 109084 clinical isolate assessed as ceftazidime MIC at 8.7 uM by checkerboard assay (reference value: 64 ug/ml)
[31] = test system: Pseudomonas aeruginosa; assay: Potentiation of ceftazidime-induced antibacterial activity against carbapenem-resistant Pseudomonas aeruginosa PAO750 harboring mexAB-oprM/mexCD-oprJ/mexEF-oprN/mexJK/mexXY/opmH efflux deficient mutant assessed as ceftazidime MIC at 8.7 uM by checkerboard assay (reference value: 0.5 ug/ml)

SMILES: N=C(N)NC[C@H]1O[C@H](O[C@H]2[C@H](OCCCCCCCCCCCCN3CCN(c4cc5c(cc4F)c(=O)c(C(=O)O)cn5C4CC4)CC3)[C@@H](O[C@H]3O[C@H](CO)[C@@H](O)[C@H](NC(=N)N)[C@H]3O)[C@H](NC(=N)N)C[C@@H]2NC(=N)N)[C@H](NC(=N)N)C[C@@H]1O.O=C(O)C(F)(F)F.O=C(O)C(F)(F)F.O=C(O)C(F)(F)F.O=C(O)C(F)(F)F.O=C(O)C(F)(F)F.O=C(O)C(F)(F)F
- MIC [1]: 16 µg/mL
- MIC [2]: 16 µg/mL
- MIC [3]: 8 µg/mL
- fold change (FC) [4]: 2
- MIC [5]: 1 µg/mL
- MIC [6]: 32 µg/mL
- MIC [7]: 32 µg/mL
- MIC [8]: 4 µg/mL
- fold change (FC) [9]: 16

SMILES: NC[C@H]1O[C@H](O[C@H]2[C@H](OCCCCCCCCN3CCCNCCNCCCNCC3)[C@@H](O)[C@H](N)C[C@@H]2N)[C@H](N)C[C@@H]1O.O=C(O)C(F)(F)F.O=C(O)C(F)(F)F.O=C(O)C(F)(F)F.O=C(O)C(F)(F)F.O=C(O)C(F)(F)F.O=C(O)C(F)(F)F.O=C(O)C(F)(F)F.O=C(O)C(F)(F)F
- MIC [1]: 8 µg/mL
- MIC [2]: 16 µg/mL
- MIC [3]: 8 µg/mL
- fold change (FC) [4]: 2
- MIC [5]: 8 µg/mL
- MIC [6]: 32 µg/mL
- MIC [7]: 8 µg/mL
- MIC [8]: 8 µg/mL
- fold change (FC) [9]: 16

SMILES: Cl.Cl.Cl.Cl.Cl.Cl.NC[C@H]1O[C@H](O[C@H]2[C@H](OCCCCCCCCCCCCN3CCN(c4cc5c(cc4F)c(=O)c(C(=O)O)cn5C4CC4)CC3)[C@@H](O[C@H]3O[C@H](CO)[C@@H](O)[C@H](N)[C@H]3O)[C@H](N)C[C@@H]2N)[C@H](N)C[C@@H]1O
- MIC [1]: 8 µg/mL
- MIC [2]: 4 µg/mL
- MIC [3]: 4 µg/mL
- fold change (FC) [4]: 2
- MIC [5]: 2 µg/mL
- MIC [6]: 16 µg/mL
- MIC [7]: 4 µg/mL
- MIC [8]: 2 µg/mL
- fold change (FC) [9]: 16

SMILES: NC[C@H]1O[C@H](O[C@H]2[C@H](OCCCCc3cn(CCCCO[C@@H]4[C@@H](O[C@H]5O[C@H](CO)[C@@H](O)[C@H](N)[C@H]5O)[C@H](N)C[C@H](N)[C@H]4O[C@H]4O[C@H](CN)[C@@H](O)C[C@H]4N)nn3)[C@@H](O[C@H]3O[C@H](CO)[C@@H](O)[C@H](N)[C@H]3O)[C@H](N)C[C@@H]2N)[C@H](N)C[C@@H]1O.O=C(O)C(F)(F)F.O=C(O)C(F)(F)F.O=C(O)C(F)(F)F.O=C(O)C(F)(F)F.O=C(O)C(F)(F)F.O=C(O)C(F)(F)F.O=C(O)C(F)(F)F.O=C(O)C(F)(F)F.O=C(O)C(F)(F)F.O=C(O)C(F)(F)F
- MIC [1]: 64 µg/mL
- MIC [2]: 8 µg/mL
- MIC [3]: 16 µg/mL
- fold change (FC) [4]: 2
- MIC [5]: 0.5 µg/mL
- MIC [6]: 32 µg/mL
- MIC [7]: 8 µg/mL
- MIC [8]: 8 µg/mL
- fold change (FC) [9]: 16

SMILES: Cl.Cl.Cl.Cl.Cl.NC[C@H]1O[C@H](O[C@H]2[C@H](OCCCCCCCCCCCCN3CCN(c4cc5c(cc4F)c(=O)c(C(=O)O)cn5C4CC4)CC3)[C@@H](O)[C@H](N)C[C@@H]2N)[C@H](N)C[C@@H]1O
- MIC [1]: 4 µg/mL
- MIC [2]: 0.25 µg/mL
- MIC [3]: 0.25 µg/mL
- fold change (FC) [4]: 2
- MIC [5]: 1 µg/mL
- MIC [6]: 32 µg/mL
- MIC [7]: 16 µg/mL
- MIC [8]: 4 µg/mL
- fold change (FC) [9]: 16

SMILES: NC[C@H]1O[C@H](O[C@H]2[C@H](OCCCCCCCCN3CCCNCCNCCCNCC3)[C@@H](O[C@H]3O[C@H](CO)[C@@H](O)[C@H](N)[C@H]3O)[C@H](N)C[C@@H]2N)[C@H](N)C[C@@H]1O.O=C(O)C(F)(F)F.O=C(O)C(F)(F)F.O=C(O)C(F)(F)F.O=C(O)C(F)(F)F.O=C(O)C(F)(F)F.O=C(O)C(F)(F)F.O=C(O)C(F)(F)F.O=C(O)C(F)(F)F.O=C(O)C(F)(F)F
- MIC [10]: 16 µg/mL
- MIC [11]: 1 µg/mL
- MIC [12]: 64 µg/mL
- MIC [13]: 0.02 µg/mL
- MIC [14]: 2 µg/mL
- fold change (FC) [4]: 2
- MIC [15]: 8 µg/mL
- MIC [5]: 8 µg/mL
- MIC [16]: 32 µg/mL
- MIC [17]: 32 µg/mL
- MIC [18]: 64 µg/mL
- MIC [19]: 1 µg/mL
- MIC [20]: 4 µg/mL
- MIC [21]: 2 µg/mL
- MIC [22]: 4 µg/mL
- MIC [23]: 8 µg/mL
- MIC [24]: 8 µg/mL
- MIC [25]: 8 µg/mL
- MIC [26]: 8 µg/mL
- MIC [27]: 0.03 µg/mL
- MIC [28]: 16 µg/mL
- MIC [8]: 8 µg/mL
- fold change (FC) [9]: 16
- MIC [29]: 16 µg/mL
- MIC [30]: 16 µg/mL
- MIC [31]: 0.06 µg/mL

SMILES: NC[C@H]1O[C@H](O[C@H]2[C@H](OCCCCc3cn(CCCCO[C@@H]4[C@@H](O)[C@H](N)C[C@H](N)[C@H]4O[C@H]4O[C@H](CN)[C@@H](O)C[C@H]4N)nn3)[C@@H](O)[C@H](N)C[C@@H]2N)[C@H](N)C[C@@H]1O.O=C(O)C(F)(F)F.O=C(O)C(F)(F)F.O=C(O)C(F)(F)F.O=C(O)C(F)(F)F.O=C(O)C(F)(F)F.O=C(O)C(F)(F)F.O=C(O)C(F)(F)F.O=C(O)C(F)(F)F
- MIC [1]: 32 µg/mL
- MIC [2]: 16 µg/mL
- MIC [3]: 16 µg/mL
- fold change (FC) [4]: 2
- MIC [5]: 4 µg/mL
- MIC [6]: 32 µg/mL
- MIC [7]: 16 µg/mL
- MIC [8]: 8 µg/mL
- fold change (FC) [9]: 16
